# Measured values published in paper PMC10913484, “Hydroxyhexylitaconic acids as potent IMP-type metallo-β-lactamase inhibitors for controlling carbapenem resistance in Enterobacterales” (Microbiology Spectrum, 2024).
# Where two headings read alike, the source gives them in different places.
# Experiments:
# IMP-1 [1] = molecular target: T1, IMP-1 (Serratia marcescens, UniProt P52699); assay type: biochemical; details: IMP-1 with agent (5 mM stock), dialysis
# T1 construct: made in house
# Method: A total of 5 µL of IMP-1 (100 µM) and 2 µL of EDTA (5 mM) or HHIA (5 mM) were mixed in 100 µL of 20 mM HEPES buffer (pH 7.5) pretreated with Chelex 100 resin (Bio-Rad) and incubated on ice for 30 min. The samples were dialyzed against ultrapure water at 4°C for 6 h using Slide-A-Lyzer Dialysis Cassettes (cutoff, 3.5 K) (Thermo Fisher Scientific) and treated with proteinase K (FUJIFILM Wako Pure Chemical Corporation) at 37°C for 1 h. The zinc concentration in the samples was determined using a Zinc Assay Kit (MG Metallogenics).
# [2] = system: P. penneri E11-M475 (IMP-1); experiment: Susceptibility test, clinical isolate; assay type: cell-based; details: Proteus penneri
# Method: (§1) Susceptibility testing, based on the microdilution method, was performed according to the guidelines of the Clinical and Laboratory Standards Institute ([36]).
# E. coli NUBL-24 (IMP-1) = experiment: Susceptibility test, clinical isolate; assay type: cell-based; details: Escherichia coli
# Method: as §1
# [3] = system: K. oxytoca NUBL-827 (IMP-1); experiment: Susceptibility test, clinical isolate; assay type: cell-based; details: Klebsiella oxytoca
# Method: as §1
# E. coli 426 (IMP-1) = experiment: Susceptibility test, clinical isolate; assay type: cell-based; details: Escherichia coli
# Method: as §1
# [4] = system: K. pneumoniae NUBL-23 (IMP-6); experiment: Susceptibility test, clinical isolate; assay type: cell-based; details: Klebsiella pneumoniae
# Method: as §1
# [5] = system: K. pneumoniae AR0076 (VIM-1); experiment: Susceptibility test, clinical isolate; assay type: cell-based; details: Klebsiella pneumoniae
# Method: as §1
# E. coli NUBL-22 (IMP-6) = experiment: Susceptibility test, clinical isolate; assay type: cell-based; details: Escherichia coli
# Method: as §1
# [6] = system: K. pneumoniae MS5674 (NDM-1/VIM-1); experiment: Susceptibility test, clinical isolate; assay type: cell-based; details: Klebsiella pneumoniae
# Method: as §1
# [7] = system: E. cloacae NUBL-5 (IMP-1); experiment: Susceptibility test, clinical isolate; assay type: cell-based; details: Enterobacter cloacae
# Method: as §1
# E. coli 465 (IMP-1) = experiment: Susceptibility test, clinical isolate; assay type: cell-based; details: Escherichia coli
# Method: as §1
# [8] = system: K. pneumoniae AR0034 (IMP-4); experiment: Susceptibility test, clinical isolate; assay type: cell-based; details: Klebsiella pneumoniae, K. pneumoniae AR0034 (IMP-4)
# Method: as §1
# SMB-1 = experiment: In vitro inhibition assay (IPM hydrolysis); assay type: biochemical; details: even at high doses (100 µM)
# Method: (§2) MBLs were incubated with HHIAs in 20 mM HEPES buffer (pH 7.5) containing 200 mM NaCl and 50 µg/mL BSA at 30°C for 5 min. IPM was added at a concentration of 100 µM, and the rate of IPM hydrolysis was monitored at 297 nm. The initial velocity (v0) rates were plotted against HHIA’s logarithmic concentrations, and the data were fitted to a four-parameter variable slope to obtain the half-maximal inhibitor concentration (IC50) values using GraphPad Prism 9 software (GraphPad Software). The inhibition constant (Ki) was determined as follows: v0 was measured after varying the concentrations of IPM and HHIAs, and inverse v0 (1/v0) was plotted against the inverse IPM concentration [1/(IPM)]. Lineweaver–Burk plots were created to obtain Ki values under the competitive inhibition model using the SigmaPlot 14 suite (Hulinks).
# NDM-1 = molecular target: T2, NDM-1 (Klebsiella pneumoniae, UniProt C7C422); experiment: In vitro inhibition assay (IPM hydrolysis); assay type: biochemical; details: even at high doses (100 µM)
# T2 construct: made in house
# T2 sequence (C7C422 29-270 limits assumed): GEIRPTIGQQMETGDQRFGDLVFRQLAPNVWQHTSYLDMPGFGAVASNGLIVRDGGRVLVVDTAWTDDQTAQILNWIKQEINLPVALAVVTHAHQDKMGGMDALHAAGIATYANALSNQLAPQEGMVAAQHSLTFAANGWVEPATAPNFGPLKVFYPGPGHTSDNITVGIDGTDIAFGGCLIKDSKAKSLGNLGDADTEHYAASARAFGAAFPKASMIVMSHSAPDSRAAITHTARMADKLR
# Method: as §2
# IMP-1 [9] = molecular target: T1, IMP-1; experiment: In vitro inhibition assay (IPM hydrolysis); assay type: biochemical
# Method: as §2
# IMP-6 = molecular target: T3, IMP-6 (Serratia marcescens, UniProt P52699, S214G); experiment: In vitro inhibition assay (IPM hydrolysis); assay type: biochemical
# T3 construct: made in house
# T3 sequence (P52699 19-246 S214G): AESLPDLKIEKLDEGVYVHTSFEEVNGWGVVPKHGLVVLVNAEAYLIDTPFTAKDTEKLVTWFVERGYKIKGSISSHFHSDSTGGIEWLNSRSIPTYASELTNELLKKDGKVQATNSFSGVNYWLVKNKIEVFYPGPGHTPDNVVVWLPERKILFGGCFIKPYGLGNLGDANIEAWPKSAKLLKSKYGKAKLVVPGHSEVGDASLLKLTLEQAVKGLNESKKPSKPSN
# Method: as §2
# VIM-2 = molecular target: T4, VIM-2 (Escherichia coli, UniProt Q5U7L7); experiment: In vitro inhibition assay (IPM hydrolysis); assay type: biochemical
# T4 construct: made in house
# Method: as §2
# [10] = +HHIA 6.25 µg/mL, read-out: IPM MIC
# [11] = +HHIA 6.25 μg/mL, read-out: MPM MIC
# [12] = +HHIA 25 µg/mL, read-out: IPM MIC
# [13] = +HHIA 25 μg/mL, read-out: MPM MIC
# [14] = +HHIA 100 µg/mL, read-out: IPM MIC
# [15] = +HHIA 100 μg/mL, read-out: MPM MIC
# T1 sequence (P52699 19-246, looked up, species assumed): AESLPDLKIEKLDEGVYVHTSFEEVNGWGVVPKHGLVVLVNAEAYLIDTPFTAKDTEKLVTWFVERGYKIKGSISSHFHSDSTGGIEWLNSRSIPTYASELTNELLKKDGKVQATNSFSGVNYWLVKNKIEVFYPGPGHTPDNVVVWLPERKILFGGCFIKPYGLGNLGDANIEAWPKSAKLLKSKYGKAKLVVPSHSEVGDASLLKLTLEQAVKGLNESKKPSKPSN
compound,measurement,setting,value
"C=C(C(=O)O)C(CCCCC(C)O)C(=O)O (centres unmarked) [9-HHIA, 9-hydroxyhexylitaconic acid]",Zinc ions in IMP-1 after treatment,IMP-1 [1],did not cause a significant loss of zinc ions
same,MIC,[2]; [10],> 64 µg/mL
same,MIC,[2]; [11],> 64 µg/mL
same,MIC,[2]; [12],> 64 µg/mL
same,MIC,[2]; [13],> 64 µg/mL
same,MIC,[2]; [14],> 64 µg/mL
same,MIC,[2]; [15],32 µg/mL
same,MIC,"E. coli NUBL-24 (IMP-1); +HHIA 6.25 µg/mL, E. coli NUBL-24 (IMP-1), read-out: IPM MIC",4 µg/mL
same,MIC,"E. coli NUBL-24 (IMP-1); +HHIA 6.25 μg/mL, E. coli NUBL-24 (IMP-1), read-out: MPM MIC",4 µg/mL
same,MIC,"E. coli NUBL-24 (IMP-1); +HHIA 25 µg/mL, E. coli NUBL-24 (IMP-1), read-out: IPM MIC",2 µg/mL
same,MIC,"E. coli NUBL-24 (IMP-1); +HHIA 25 μg/mL, E. coli NUBL-24 (IMP-1), read-out: MPM MIC",0.5 µg/mL
same,MIC,"E. coli NUBL-24 (IMP-1); +HHIA 100 µg/mL, E. coli NUBL-24 (IMP-1), read-out: IPM MIC",1 µg/mL
same,MIC,E. coli NUBL-24 (IMP-1); read-out: MPM MIC,0.125 µg/mL
same,MIC,[3]; [10],8 µg/mL
same,MIC,[3]; [11],32 µg/mL
same,MIC,[3]; [12],4 µg/mL
same,MIC,[3]; [13],16 µg/mL
same,MIC,[3]; [14],2 µg/mL
same,MIC,[3]; [15],4 µg/mL
same,MIC,E. coli 426 (IMP-1); [10],8 µg/mL
same,MIC,E. coli 426 (IMP-1); [11],8 µg/mL
same,MIC,E. coli 426 (IMP-1); [12],4 µg/mL
same,MIC,E. coli 426 (IMP-1); [13],4 µg/mL
same,MIC,E. coli 426 (IMP-1); [14],2 µg/mL
same,MIC,E. coli 426 (IMP-1); [15],0.25 µg/mL
same,MIC,[4]; [10],0.5 µg/mL
same,MIC,[4]; [11],32 µg/mL
same,MIC,[4]; [12],0.5 µg/mL
same,MIC,[4]; [13],16 µg/mL
same,MIC,[4]; [14],0.5 µg/mL
same,MIC,[4]; [15],0.5 µg/mL
same,MIC,[5]; [10],32 µg/mL
same,MIC,[5]; [11],32 µg/mL
same,MIC,[5]; [12],32 µg/mL
same,MIC,[5]; [13],32 µg/mL
same,MIC,[5]; [14],32 µg/mL
same,MIC,[5]; [15],32 µg/mL
same,MIC,E. coli NUBL-22 (IMP-6); [10],2 µg/mL
same,MIC,E. coli NUBL-22 (IMP-6); [11],16 µg/mL
same,MIC,E. coli NUBL-22 (IMP-6); [12],1 µg/mL
same,MIC,E. coli NUBL-22 (IMP-6); [13],16 µg/mL
same,MIC,E. coli NUBL-22 (IMP-6); [14],0.5 µg/mL
same,MIC,E. coli NUBL-22 (IMP-6); [15],4 µg/mL
same,MIC,[6]; [10],64 µg/mL
same,MIC,[6]; [11],> 64 µg/mL
same,MIC,[6]; [12],32 µg/mL
same,MIC,[6]; [13],> 64 µg/mL
same,MIC,[6]; [14],32 µg/mL
same,MIC,[6]; [15],64 µg/mL
same,MIC,[7]; [10],8 µg/mL
same,MIC,[7]; [11],16 µg/mL
same,MIC,[7]; [12],4 µg/mL
same,MIC,[7]; [13],16 µg/mL
same,MIC,[7]; [14],2 µg/mL
same,MIC,[7]; [15],8 µg/mL
same,MIC,E. coli 465 (IMP-1); [10],16 µg/mL
same,MIC,E. coli 465 (IMP-1); [11],32 µg/mL
same,MIC,E. coli 465 (IMP-1); [12],8 µg/mL
same,MIC,E. coli 465 (IMP-1); [13],8 µg/mL
same,MIC,E. coli 465 (IMP-1); [14],2 µg/mL
same,MIC,E. coli 465 (IMP-1); [15],0.5 µg/mL
same,MIC,[8]; [10],4 µg/mL
same,MIC,[8]; [11],8 µg/mL
same,MIC,[8]; [12],2 µg/mL
same,MIC,[8]; [13],2 µg/mL
same,MIC,[8]; [14],0.5 µg/mL
same,MIC,[8]; [15],0.25 µg/mL
same,Inhibition of hydrolyzing activity of SMB-1,SMB-1,did not inhibit
same,Inhibition of hydrolyzing activity of NDM-1,NDM-1,did not inhibit
same,IC50,IMP-1 [9],50.5 µM
same,Ki,IMP-1 [9],11.1 µM
same,Inhibition mode for IMP-1,IMP-1 [9]; Lineweaver–Burk plots,competitive inhibitors
same,Ki,IMP-6,27.8 µM
same,Inhibitory activity against VIM-2,VIM-2,moderate
